According to patent US8093060B2, “Multisite phosphorylated peptide (protein) recognizing compound and detection method, imaging method, alzheimer's disease diagnosing method and reagent kit using the same” (Canon Kabushiki Kaisha, priority 2008, dated 2012):

Tests used:
amyloid β aggregate = target: T1, amyloid β aggregate (Homo sapiens, UniProt P05067); test: Fluorescence titration of BODIPY-Zn(Dpa) against amyloid β aggregate (EC50); assay type: binding; details: aggregate 1 μg/mL, 37° C., 30 min
T1 construct: (Aβ1-42) indicates amyloid β aggregate
T1 sequence (P05067 672-713 limits assumed): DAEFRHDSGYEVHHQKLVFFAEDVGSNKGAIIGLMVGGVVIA
Description: (§1) BODIPY-Zn(Dpa) was titrated against a phosphorylated tau aggregate, a tau aggregate, and an amyloid β aggregate to obtain EC50 (a probe concentration at which a half value of the maximum change (ΔFmax) in fluorescence intensity is observed). BODIPY-Zn(Dpa) was titrated against an aggregate at a predetermined concentration (1 μg/mL), and changes in fluorescence intensity at each concentration (ΔF) were plotted. Using a solvent obtained by adding 10% DMSO and 100 μM Zn(NO3)2 to HBS (10 mM HEPES (pH 7.4), 150 mM NaCl), the solution was incubated at 37° C. for 30 min, and fluorescence was measured (excitation wavelength, 490 nm; fluorescence wavelength, 545 nm).

tau aggregate = target: T2, tau aggregate (Homo sapiens, UniProt P10636); test: Fluorescence titration of BODIPY-Zn(Dpa) against tau aggregate (EC50); assay type: binding; details: aggregate 1 μg/mL, 37° C., 30 min
T2 construct: made in house; host or cells: Escherichia coli
T2 sequence (P10636 1-441 isoform P10636-8): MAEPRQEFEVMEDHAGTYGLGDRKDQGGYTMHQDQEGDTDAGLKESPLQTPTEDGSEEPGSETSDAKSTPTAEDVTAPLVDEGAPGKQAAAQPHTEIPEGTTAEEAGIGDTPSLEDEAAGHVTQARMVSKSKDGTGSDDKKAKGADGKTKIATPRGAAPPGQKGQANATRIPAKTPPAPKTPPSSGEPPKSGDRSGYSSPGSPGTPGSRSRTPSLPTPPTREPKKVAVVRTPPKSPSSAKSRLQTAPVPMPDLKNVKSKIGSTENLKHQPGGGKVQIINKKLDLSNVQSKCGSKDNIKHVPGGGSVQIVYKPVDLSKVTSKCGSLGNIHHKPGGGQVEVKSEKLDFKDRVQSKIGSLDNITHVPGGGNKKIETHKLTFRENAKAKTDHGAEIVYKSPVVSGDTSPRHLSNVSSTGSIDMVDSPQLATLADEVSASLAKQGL
Description: as §1

Work on `CC1=C(c2ccc(CN(C)Cc3ccccn3)nc2)C(C)=[N+]2C1=C(c1cc(OCCOCCOCCO)cc(OCCOCCOCCO)c1)c1c(C)c(-c3ccc(CN(C)Cc4ccccn4)nc3)c(C)n1[B-]2(F)F.O=[N+]([O-])[O-].O=[N+]([O-])[O-].O=[N+]([O-])[O-].O=[N+]([O-])[O-].[Zn+2].[Zn+2]` [BODIPY-Zn(Dpa)] yielded an EC50 (amyloid β aggregate) of 650 nM and an EC50 (tau aggregate) of 80 nM.
